Measurements reported in patent US20130237511A1, “Copper Ion Delivery Platform for Pharmaceutical Agents” (University System of Georgia, priority 2012, published 2013).

Experiments:
[1] = ionic strengths 0.01 to 1, 25 and 37° C.; cited from earlier work
[2] = tested on: 786-0; experiment: NCI 60 cell line panel, single dose; format: cell-based; settings: Renal Cancer, 786-0, single dose
Source text: (§1) This complex performed at a similar level compared to individual tests for copper(II) sulfate as well as quinine sulfate (NSC).

[3] = tested on: A549/ATCC; experiment: NCI 60 cell line panel, single dose; format: cell-based; settings: Non-Small Cell Lung Cancer
Source text: as §1

[4] = tested on: ACHN; experiment: NCI 60 cell line panel, single dose; format: cell-based; settings: Renal Cancer
Source text: as §1

[5] = tested on: BT-549; experiment: NCI 60 cell line panel, single dose; format: cell-based; settings: Breast Cancer, BT-549, single dose
Source text: as §1

[6] = tested on: CAKI-1; experiment: NCI 60 cell line panel, single dose; format: cell-based; settings: Renal Cancer, CAKI-1, single dose
Source text: as §1

[7] = tested on: CCRF-CEM; experiment: NCI 60 cell line panel, single dose; format: cell-based; settings: Leukemia
Source text: as §1

[8] = tested on: COLO 205; experiment: NCI 60 cell line panel, single dose; format: cell-based; settings: Colon Cancer, COLO 205, single dose
Source text: as §1

[9] = tested on: DU-145; experiment: NCI 60 cell line panel, single dose; format: cell-based; settings: Prostate Cancer, DU-145, single dose
Source text: as §1

[10] = tested on: EKVX; experiment: NCI 60 cell line panel, single dose; format: cell-based; settings: Non-Small Cell Lung Cancer
Source text: as §1

[11] = tested on: HCC-2998; experiment: NCI 60 cell line panel, single dose; format: cell-based; settings: Colon Cancer, HCC-2998, single dose
Source text: as §1

[12] = tested on: HCT-116; experiment: NCI 60 cell line panel, single dose; format: cell-based; settings: Colon Cancer, HCT-116, single dose
Source text: as §1

[13] = tested on: HCT-15; experiment: NCI 60 cell line panel, single dose; format: cell-based; settings: Colon Cancer, HCT-15, single dose
Source text: as §1

[14] = tested on: HL-60(TB); experiment: NCI 60 cell line panel, single dose; format: cell-based; settings: Leukemia
Source text: as §1

[15] = tested on: HOP-62; experiment: NCI 60 cell line panel, single dose; format: cell-based; settings: Non-Small Cell Lung Cancer, HOP-62, single dose
Source text: as §1

[16] = tested on: HOP-92; experiment: NCI 60 cell line panel, single dose; format: cell-based; settings: Non-Small Cell Lung Cancer, HOP-92, single dose
Source text: as §1

[17] = tested on: HS 578T; experiment: NCI 60 cell line panel, single dose; format: cell-based; settings: Breast Cancer
Source text: as §1

[18] = tested on: HT29; experiment: NCI 60 cell line panel, single dose; format: cell-based; settings: Colon Cancer
Source text: as §1

[19] = tested on: IGROV1; experiment: NCI 60 cell line panel, single dose; format: cell-based; settings: Ovarian Cancer
Source text: as §1

[20] = tested on: KM12; experiment: NCI 60 cell line panel, single dose; format: cell-based; settings: Colon Cancer
Source text: as §1

[21] = tested on: LOX IMVI; experiment: NCI 60 cell line panel, single dose; format: cell-based; settings: Melanoma
Source text: as §1

[22] = tested on: M14; experiment: NCI 60 cell line panel, single dose; format: cell-based; settings: Melanoma
Source text: as §1

[23] = tested on: MALME-3M; experiment: NCI 60 cell line panel, single dose; format: cell-based; settings: Melanoma
Source text: as §1

[24] = tested on: MCF7; experiment: NCI 60 cell line panel, single dose; format: cell-based; settings: Breast Cancer
Source text: as §1

[25] = tested on: MDA-MB-231/ATCC; experiment: NCI 60 cell line panel, single dose; format: cell-based; settings: Breast Cancer
Source text: as §1

[26] = tested on: MDA-MB-435; experiment: NCI 60 cell line panel, single dose; format: cell-based; settings: Melanoma, MDA-MB-435, single dose
Source text: as §1

[27] = tested on: MDA-MB-468; experiment: NCI 60 cell line panel, single dose; format: cell-based; settings: Breast Cancer, MDA-MB-468, single dose
Source text: as §1

[28] = tested on: MOLT-4; experiment: NCI 60 cell line panel, single dose; format: cell-based; settings: Leukemia, MOLT-4, single dose
Source text: as §1

[29] = tested on: NCI-H226; experiment: NCI 60 cell line panel, single dose; format: cell-based; settings: Non-Small Cell Lung Cancer
Source text: as §1

[30] = tested on: NCI-H23; experiment: NCI 60 cell line panel, single dose; format: cell-based; settings: Non-Small Cell Lung Cancer
Source text: as §1

[31] = tested on: NCI-H322M; experiment: NCI 60 cell line panel, single dose; format: cell-based; settings: Non-Small Cell Lung Cancer
Source text: as §1

[32] = tested on: NCI-H460; experiment: NCI 60 cell line panel, single dose; format: cell-based; settings: Non-Small Cell Lung Cancer
Source text: as §1

[33] = tested on: NCI-H522; experiment: NCI 60 cell line panel, single dose; format: cell-based; settings: Non-Small Cell Lung Cancer
Source text: as §1

[34] = tested on: NCI/ADR-RES; experiment: NCI 60 cell line panel, single dose; format: cell-based; settings: Ovarian Cancer
Source text: as §1

[35] = tested on: OVCAR-3; experiment: NCI 60 cell line panel, single dose; format: cell-based; settings: Ovarian Cancer, OVCAR-3, single dose
Source text: as §1

[36] = tested on: OVCAR-4; experiment: NCI 60 cell line panel, single dose; format: cell-based; settings: Ovarian Cancer, OVCAR-4, single dose
Source text: as §1

[37] = tested on: OVCAR-5; experiment: NCI 60 cell line panel, single dose; format: cell-based; settings: Ovarian Cancer, OVCAR-5, single dose
Source text: as §1

[38] = tested on: OVCAR-8; experiment: NCI 60 cell line panel, single dose; format: cell-based; settings: Ovarian Cancer, OVCAR-8, single dose
Source text: as §1

[39] = tested on: RPMI-8226; experiment: NCI 60 cell line panel, single dose; format: cell-based; settings: Leukemia, RPMI-8226, single dose
Source text: as §1

[40] = tested on: RXF 393; experiment: NCI 60 cell line panel, single dose; format: cell-based; settings: Renal Cancer, RXF 393, single dose
Source text: as §1

[41] = tested on: SK-MEL-28; experiment: NCI 60 cell line panel, single dose; format: cell-based; settings: Melanoma, SK-MEL-28, single dose
Source text: as §1

[42] = tested on: SK-MEL-2; experiment: NCI 60 cell line panel, single dose; format: cell-based; settings: Melanoma, SK-MEL-2, single dose
Source text: as §1

[43] = tested on: SK-OV-3; experiment: NCI 60 cell line panel, single dose; format: cell-based; settings: Ovarian Cancer, SK-OV-3, single dose
Source text: as §1

[44] = tested on: SN12C; experiment: NCI 60 cell line panel, single dose; format: cell-based; settings: Renal Cancer
Source text: as §1

[45] = tested on: SR; experiment: NCI 60 cell line panel, single dose; format: cell-based; settings: Leukemia
Source text: as §1

[46] = tested on: SW-620; experiment: NCI 60 cell line panel, single dose; format: cell-based; settings: Colon Cancer, SW-620, single dose
Source text: as §1

[47] = tested on: T-47D; experiment: NCI 60 cell line panel, single dose; format: cell-based; settings: Breast Cancer
Source text: as §1

[48] = tested on: TK-10; experiment: NCI 60 cell line panel, single dose; format: cell-based; settings: Renal Cancer, TK-10, single dose
Source text: as §1

[49] = tested on: UACC-257; experiment: NCI 60 cell line panel, single dose; format: cell-based; settings: Melanoma, UACC-257, single dose
Source text: as §1

[50] = tested on: UACC-62; experiment: NCI 60 cell line panel, single dose; format: cell-based; settings: Melanoma, UACC-62, single dose
Source text: as §1

[51] = tested on: UO-31; experiment: NCI 60 cell line panel, single dose; format: cell-based; settings: Renal Cancer, UO-31, single dose
Source text: as §1

[52] = tested on: SF-268; experiment: NCI 60 cell line panel, single dose; format: cell-based; settings: CNS Cancer, SF-268, single dose
[53] = tested on: SF-295; experiment: NCI 60 cell line panel, single dose; format: cell-based; settings: CNS Cancer, SF-295, single dose
[54] = tested on: SF-539; experiment: NCI 60 cell line panel, single dose; format: cell-based; settings: CNS Cancer, SF-539, single dose
[55] = tested on: SNB-19; experiment: NCI 60 cell line panel, single dose; format: cell-based; settings: CNS Cancer, SNB-19, single dose
[56] = tested on: SNB-75; experiment: NCI 60 cell line panel, single dose; format: cell-based; settings: CNS Cancer, SNB-75, single dose
[57] = tested on: U251; experiment: NCI 60 cell line panel, single dose; format: cell-based; settings: CNS Cancer

C=C[C@H]1C[N@@]2CC[C@H]1C[C@H]2[C@H](O)c1ccnc2ccc(OC)cc12 [Quinine]
pKa1 [1]: approximately 4.2
pKa2 [1]: 8.5

copper(II)-(quinine)2^+ [CuQ2]
Growth Percent [2]: 120.5%
Growth Percent [3]: 88.43%
Growth Percent [4]: 100.6%
Growth Percent [5]: 107.4%
Growth Percent [6]: 109.9%
Growth Percent [7]: 100.1%
Growth Percent [8]: 91.74%
Growth Percent [9]: 113.3%
Growth Percent [10]: 119.3%
Growth Percent [11]: 108.9%
Growth Percent [12]: 96.95%
Growth Percent [13]: 98.35%
Growth Percent [14]: 106.2%
Growth Percent [15]: 132.7%
Growth Percent [16]: 88.14%
Growth Percent [17]: 117.5%
Growth Percent [18]: 84.68%
Growth Percent [19]: 124.1%
Growth Percent [20]: 91.04%
Growth Percent [21]: 80.61%
Growth Percent [22]: 101.1%
Growth Percent [23]: 105.7%
Growth Percent [24]: 84.97%
Growth Percent [25]: 82.36%
Growth Percent [26]: 91.47%
Growth Percent [27]: 117.8%
Growth Percent [28]: 96.49%
Growth Percent [29]: 103.6%
Growth Percent [30]: 104.3%
Growth Percent [31]: 119.9%
Growth Percent [32]: 105.8%
Growth Percent [33]: 94.89%
Growth Percent [34]: 105%
Growth Percent [35]: 120%
Growth Percent [36]: 110.4%
Growth Percent [37]: 116.2%
Growth Percent [38]: 103.8%
Growth Percent [39]: 105.8%
Growth Percent [40]: 139.9%
Growth Percent [41]: 109.2%
Growth Percent [42]: 95.24%
Growth Percent [43]: 95.07%
Growth Percent [44]: 109.4%
Growth Percent [45]: 80.32%
Growth Percent [46]: 111%
Growth Percent [47]: 100.1%
Growth Percent [48]: 115%
Growth Percent [49]: 93.34%
Growth Percent [50]: 84.78%
Growth Percent [51]: 92.23%
Growth Percent [52]: 125.4%
Growth Percent [53]: 85.7%
Growth Percent [54]: 102.4%
Growth Percent [55]: 108.7%
Growth Percent [56]: 126.4%
Growth Percent [57]: 83.16%
